# Tests used:
# [1] = system: closed head injury; test: Tissue edema formation (tissue water content) after CHI; type: in vivo, mice; conditions: left (ipsilateral) hemisphere, 24 h after injury; P=0.15 vs vehicle
# [2] = target: T1, rat-TRPV2 (Rattus norvegicus, UniProt Q9WUD2); test: Calcium imaging of HEK293 cells transiently transfected with rat-TRPV2; type: cell-based; conditions: IA 100 μM
# T1 construct: expressed in transfected cells; host or cells: HEK293 (transient, lipofectamine)
# Text: (§1) All error bars indicate SEM; p values in all subfigures but c represent analysis with one-way ANOVA Bonferroni's post hoc.
# HEK293 cells were transiently transfected with a rat TRPV2 plasmid using lipofectamine reagent (Invitrogen, Carlsbad, Calif.) according to manufacturer's protocol. They were then maintained in Dulbecco's modified Eagle Medium/10% fetal calf serum supplemented with Penicillin, Streptomycin, and L-glutamine. Primary keratinocytes from TRPV3-deficient and TRPV3+/+ mouse pups (day 1-4) were harvested and cultured as described previously [Chung, M. K., Lee, H., Mizuno, A., Suzuki, M. & Caterina, M. J. TRPV3 and TRPV4 mediate warmth-evoked currents in primary mouse keratinocytes. J. Biol. Chem. 279, 21569-21575 (2004)].
# (§2) For single cell calcium imaging, HEK293-rat TRPV2 and HEK293-mouse TRPV3-YFP expressing cells were plated on collagen-coated glass cover slips. Cells were loaded for 60 min with 3 μM Fura-2 AM.
# [3] = General toxicity in mice; type: in vivo; conditions: single dose 150 mg/kg and 30 mg/kg 3 times a week for a month
# [4] = system: inflamed paw; test: Inflamed paw model (carrageenin) in mice; type: in vivo, Sabra female mice
# Description: IA (50 mg/kg) or vehicle were injected i.p. to Sabra female mice (5 per group) 30 min before induction of the inflammatory stimulus. Hind paws were then injected with 50 μl of saline or λ-carrageenin (4%). Ensuing inflammatory swelling was measured by increase in foot volume in a plethysmometer. […] There were highly significant effects of treatment (F=11.7, df=3.64, P<0.001). *, different from IA +saline, P<0.05; **, ***, different from vehicle+saline at P<0.01, P<0.001 respectively; #, different from vehicle+carrageenin, P<0.05.
# Inflamed Paw Model. Sabra female mice were used to assess the response to IA or vehicle in an in vivo model of inflammation. Drug or vehicle was administered 30 min before induction of the inflammatory stimulus. Mice (5 per group) were injected i.p. with vehicle (isopropanol:Emulphor:saline=1:1:18) or with vehicle containing IA (50 mg/kg, i.p). Emulphor (a polyethoxylated vegetable oil) is a commercial emulsifier. Hind paws were injected with 50 μl of saline (left or right alternatively) or λ-carrageenin (4%, right or left alternatively), using 26G needles. Ensuing inflammatory swelling was measured by increase in foot volume in a plethysmometer (Ugo-Basile, Italy). Paw volume as well as redness (as a measure of erythema) and licking (as a measure of pain) were assayed before carrageenin application and every 60 min until 4 hrs.
# [5] = target: TRPV1 (Homo sapiens, UniProt Q8NER1); test: Calcium imaging of TRPV1-transfected HEK293 cells; type: cell-based; conditions: IA 100 μM, compared to vehicle
# Chain of TRPV1 (Q8NER1 whole entry): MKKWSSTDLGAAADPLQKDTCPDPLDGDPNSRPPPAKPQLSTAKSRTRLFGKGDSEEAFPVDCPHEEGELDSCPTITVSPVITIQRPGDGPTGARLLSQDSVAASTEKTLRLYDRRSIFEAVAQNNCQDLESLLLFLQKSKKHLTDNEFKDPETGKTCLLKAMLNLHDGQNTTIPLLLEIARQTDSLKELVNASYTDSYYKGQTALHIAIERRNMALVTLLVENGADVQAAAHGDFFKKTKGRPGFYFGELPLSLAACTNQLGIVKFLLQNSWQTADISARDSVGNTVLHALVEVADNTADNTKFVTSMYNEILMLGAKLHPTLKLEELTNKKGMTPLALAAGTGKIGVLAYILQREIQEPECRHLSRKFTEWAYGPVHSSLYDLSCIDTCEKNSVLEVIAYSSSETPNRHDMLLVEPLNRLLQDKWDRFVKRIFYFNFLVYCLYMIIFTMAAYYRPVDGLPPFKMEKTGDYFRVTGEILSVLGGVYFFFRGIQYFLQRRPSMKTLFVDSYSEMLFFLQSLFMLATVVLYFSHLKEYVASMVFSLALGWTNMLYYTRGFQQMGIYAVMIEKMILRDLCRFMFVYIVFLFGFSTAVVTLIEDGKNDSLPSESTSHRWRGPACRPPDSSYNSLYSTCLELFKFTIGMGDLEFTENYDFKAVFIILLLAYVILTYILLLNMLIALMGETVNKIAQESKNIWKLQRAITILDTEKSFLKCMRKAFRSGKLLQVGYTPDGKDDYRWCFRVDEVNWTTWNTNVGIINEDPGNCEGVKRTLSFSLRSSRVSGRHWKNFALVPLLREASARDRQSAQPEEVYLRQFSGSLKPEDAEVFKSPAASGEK
# Description: as §1
# Human HEK 293 cells stably expressing TRPV1 were a kind gift from Merck Research Laboratories (Whitehouse Station, N.J.). Cells were cultured in minimal essential medium, Eagle, modified with non-essential amino acids, 1 mM sodium pyruvate, 2 mM L-glutamine and 1.5 g/L sodium bicarbonate (ATCC, Mabassas, Va.), containing 1% Penicillin-streptomycin, and 10% foetal bovine serum. Cells were passaged three times a week using Trypsin-EDTA 1× (Invitrogen, Carlsbad, Calif.) and grown under 5% CO2 at 37° C.
# (§3) Calcium imaging of HEK 293 cells. TRPV1, TRPV3, and TRPV4 expressing HEK293 cells were plated 24-48 h before imaging in 96 well plates, loaded with 3 μM Fura-2 AM and imaged as previously described [O'dell, D. K., Rimmerman, N., Pickens, S. R. & Walker J. M. Fatty acyl amides of endogenous tetrahydroisoquinolines are active at the recombinant human TRPV1 receptor. […] Med. Chem. 15, 6164-6169 (2007)].
# [6] = target: T2, mouse TRPV3-YFP (Mus musculus, UniProt Q8K424); test: Calcium imaging of HEK293 cells expressing mouse TRPV3-YFP; type: cell-based
# T2 construct: expressed in transfected cells
# T2 sequence (Q8K424 1-791): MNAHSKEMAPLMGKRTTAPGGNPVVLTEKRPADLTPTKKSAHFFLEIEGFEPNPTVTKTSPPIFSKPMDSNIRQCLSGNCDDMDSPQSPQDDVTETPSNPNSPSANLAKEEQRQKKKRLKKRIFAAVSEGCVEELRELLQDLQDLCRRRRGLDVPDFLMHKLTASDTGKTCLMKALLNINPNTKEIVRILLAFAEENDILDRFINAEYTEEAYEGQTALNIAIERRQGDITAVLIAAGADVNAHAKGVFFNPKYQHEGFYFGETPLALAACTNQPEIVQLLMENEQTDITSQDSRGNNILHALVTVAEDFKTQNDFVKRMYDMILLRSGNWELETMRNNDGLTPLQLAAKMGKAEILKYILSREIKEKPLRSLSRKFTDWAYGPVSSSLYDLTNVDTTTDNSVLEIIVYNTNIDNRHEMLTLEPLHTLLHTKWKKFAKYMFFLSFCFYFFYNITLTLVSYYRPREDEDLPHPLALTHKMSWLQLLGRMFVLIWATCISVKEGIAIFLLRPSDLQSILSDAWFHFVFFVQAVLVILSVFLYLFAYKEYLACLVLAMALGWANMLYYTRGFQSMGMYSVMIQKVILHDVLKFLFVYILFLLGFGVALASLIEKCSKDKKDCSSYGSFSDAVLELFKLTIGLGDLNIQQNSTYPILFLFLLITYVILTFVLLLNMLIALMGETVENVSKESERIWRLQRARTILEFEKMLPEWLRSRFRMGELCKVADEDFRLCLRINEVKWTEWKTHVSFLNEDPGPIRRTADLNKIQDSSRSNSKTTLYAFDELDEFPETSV
# Description: as §1
# TRPV3-YFP [O'dell, D. K., Rimmerman, N., Pickens, S. R. & Walker J. M. Fatty acyl amides of endogenous tetrahydroisoquinolines are active at the recombinant human TRPV1 receptor. […] Med. Chem. 15, 6164-6169 (2007)], TRPV4 and mock-transfected cell lines were cultured in DMEM 1× with L-glutamine (Mediatech, Inc. Herndon, Va.), containing 1% penicillin-streptomycin (Invitrogen, Carlsbad, Calif.) and 10% foetal bovine serum.
# as §3, §2
# Data analysis of calcium imaging data. Analysis of calcium imaging data was done using a non-linear regression curve fit (Graphpad 4 Prism, San Diego, Calif.). t tests and one way ANOVA were calculated using SPSS (Chicago, Ill.). In the keratinocyte experiments, drug-induced response for each cell was taken as the maximal post-drug measurements over time minus the average of the last 5 pre-drug measurements. Averaged drug responses over 30 randomly selected cells per coverslip were analyzed with two-tailed unpaired t tests.
# T1 sequence (Q9WUD2 whole entry): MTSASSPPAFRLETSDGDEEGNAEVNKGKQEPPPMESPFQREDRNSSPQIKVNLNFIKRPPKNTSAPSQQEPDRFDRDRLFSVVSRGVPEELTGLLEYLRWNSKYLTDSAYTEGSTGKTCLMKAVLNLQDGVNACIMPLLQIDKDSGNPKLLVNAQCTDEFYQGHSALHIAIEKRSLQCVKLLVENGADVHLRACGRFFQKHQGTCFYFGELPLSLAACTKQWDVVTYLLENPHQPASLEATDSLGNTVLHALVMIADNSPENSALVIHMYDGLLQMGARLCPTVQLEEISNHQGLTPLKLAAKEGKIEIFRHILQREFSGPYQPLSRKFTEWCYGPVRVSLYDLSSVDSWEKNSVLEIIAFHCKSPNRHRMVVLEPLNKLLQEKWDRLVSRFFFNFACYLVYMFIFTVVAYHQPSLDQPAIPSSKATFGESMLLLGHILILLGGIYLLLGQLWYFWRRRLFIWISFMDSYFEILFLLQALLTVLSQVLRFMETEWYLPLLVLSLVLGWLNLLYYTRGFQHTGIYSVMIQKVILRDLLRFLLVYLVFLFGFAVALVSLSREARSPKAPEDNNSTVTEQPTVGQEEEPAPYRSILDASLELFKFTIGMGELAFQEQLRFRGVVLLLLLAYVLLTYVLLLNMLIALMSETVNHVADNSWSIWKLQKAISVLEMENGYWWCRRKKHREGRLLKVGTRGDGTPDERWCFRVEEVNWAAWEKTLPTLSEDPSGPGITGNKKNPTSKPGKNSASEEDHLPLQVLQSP
smiles,measurement,setting,value
"CC(=O)OC1CC/C(C)=C/CC/C(C)=C/CC2(C(C)C)CCC1(C)O2 (stereo not shown) [IA, incensole acetate]",tissue water content,[1],81.47±0.35%
same,calcium influx in rat-TRPV2 transfected HEK293 cells,[2],did not induce calcium influx
same,weight loss,[3],No weight loss was observed
same,inflammation (inflamed paw volume),"[4]; 50 mg/kg i.p. 30 min before carrageenin, 4 hrs period",significantly reduced inflammation
same,"other inflammatory parameters, such as redness and pain","[4]; 50 mg/kg i.p., data not shown",significantly reduced
same,calcium influx in TRPV1-transfected HEK293 cells,[5],very small influx of calcium
same,calcium influx vs vehicle,"[6]; IA 100 μM, 2-APB positive control",significantly increased calcium influx
same,calcium influx Hill slope,[6]; calcium in the extracellular media,2.2
same,EC50,"[6]; calcium in the extracellular media, read-out: calcium influx EC50",16 µM
same,calcium increase with calcium removed from the extracellular medium,[6]; no extracellular calcium,significantly reduced

# — patent US20100099756A1, “USES OF INCENSOLE, INCENSOLE ACETATE AND DERIVATIVES THEREOF” (YISSUM RESEARCH DEVELOPMENT COMPANY OF THE HEBREW …, priority 2006, published 2010)
